The target in test [1] is T1, human CB1 receptor (Homo sapiens, UniProt P21554). In words: Functional cell-based assay, CB1 receptor mediated change in CRE β-gal expression. Further details: expressed in transfected cells; host or cells: SK-N-MC cells. The settings on record: SK-N-MC cells with CRE β-gal and human CB1; forskolin treated; β-galactosidase activity; read-out: EC50 value for functional activity as a CB1 receptor functional inverse agonist. The source says:
The CB1 and CB2.receptors are G-protein coupled receptors (GPCR) that influence cell function via the Gi-protein. These receptors modulate the activity of intracellular adenylate cyclase, which in turn produces the intracellular signal messenger cyclic-AMP (cAMP).
At baseline, or during non-ligand bound conditions, these receptors are constitutively active and tonically suppress adenylate cyclase activity. The binding of an agonist causes further receptor activation and produces additional suppression of adenylate cyclase activity. The binding of an inverse agonist inhibits the constitutive activity of the receptors and results in an increase in adenylate cyclase activity.
Test compounds were evaluated in SK-N-MC cells which, using standard transfection procedures, were stably transfected with human cDNA for pcDNA3-CRE β-gal and pcDNA3 CB1 receptor (human) or pcDNA3 CB2 receptor (human). By expressing CRE β-gal, the cells produced β-galactosidase in response to CRE promoter activation by cAMP. Cells expressing CRE β-gal and either the human CB1 or CB2 receptor will produce less β-galactosidase when treated with a CB1/CB2 agonist and will produce more β-galactosidase when treated with a CB1/CB2 inverse agonist.
The cells were grown in 96-well plates under standard cell culture conditions at 37° C. in a 5% CO2 atmosphere. After 3 days, the media was removed and a test compound in media (wherein the media was supplemented with 2 mM L-glutamine, […] sodium pyruvate, 0.1% low fatty acid FBS (fetal bovine serum) and antibiotics) was added to the cell. The plates were incubated for 30 minutes at 37° C. and the plate cells were then treated with forskolin over a 4-6 hour period, then washed and lysed. The β-galactosidase activity was quantitated using commercially available kit reagents (Promega Corp. Madison, Wis.) and a Vmax Plate Reader (Molecular Devices, Inc).
For cells expressing CRE β-gal and the CB1 receptor, CB1 agonists reduced β-galactosidase activity in a dose-dependent manner and CB1 inverse agonists increased β-galactosidase activity in a dose-dependent manner.
The change in β-galactosidase activity was determined by setting a vehicle treated cell's activity value at 100% and expressing the β-galactosidase activity measured in a corresponding compound treated cell as a percent of the vehicle treated cell activity.
The EC50 value for functional activity for compounds tested was calculated by linear regression and was obtained from studies in which varying compound concentrations were used.

A further test concerns the target T2, human CB2 receptor (Homo sapiens, UniProt P34972).
T2 construct: expressed in transfected cells; host or cells: SK-N-MC cells (semi-purified membrane pellet)
In words: Binding assay for CB2 agonists or inverse agonists ([3H]-CP-55,940 displacement). The following applies: test concentration of 0.2 μM; membranes of SK-N-MC cells expressing human CB2. The method, then:
(§1) The human CB1 and CB2 receptors were stably expressed in SK-N-MC cells transfected with pcDNA3 CB1 (human) or pcDNA3 CB-2 (human). The cells were grown in T-180 cell culture flasks under standard cell culture conditions at 37° C. in a 5% CO2 atmosphere. The cells were harvested by trysinization and homogenized in a homogenization buffer (10 mM Tris, 0.2 mM MgCl2, 5 mM KCl, with protease inhibitors aprotinin, leupeptin, pepstatin A and bacitracin) and centrifuged (2000 g). The supernatant was then centrifuged in 2M sucrose (31,300 g) to produce a semi-purified membrane pellet. The pellet was resuspended in homogenization and stored at −80° C.
(§2) On the day of the assay, the pellet was thawed on ice and diluted in assay buffer (50 mM Tris-HCl, 5 mM MgCl2, 2.5 mM EDTA, 0.5 mg/mL fatty acid free bovine serum albumin, pH 7.5). […] Non-specific binding was measured in wells containing WIN 55,212 (10 uM). […] The Unifilter plate was dried, a scintillation cocktail was added to each well and the counts representing binding were quantitated in a TopCount scintillation counter.
(§3) For compounds tested, an IC50 binding value was obtained from percent inhibition studies in which various test concentrations were used. The binding value was calculated by linear regression. […]

The target in test [2] is T1, human CB1 receptor. In words: Binding assay for CB1 agonists or inverse agonists ([3H]-CP-55,940 displacement). Details: expressed in transfected cells; host or cells: SK-N-MC cells (semi-purified membrane pellet). The settings on record: test concentration of 0.2 μM; membranes of SK-N-MC cells expressing human CB1. The protocol:
as §1, §2, §3

SMILES strings stand for the structures. pEC50: −log10 of the molar value.

T1 sequence (P21554 whole entry): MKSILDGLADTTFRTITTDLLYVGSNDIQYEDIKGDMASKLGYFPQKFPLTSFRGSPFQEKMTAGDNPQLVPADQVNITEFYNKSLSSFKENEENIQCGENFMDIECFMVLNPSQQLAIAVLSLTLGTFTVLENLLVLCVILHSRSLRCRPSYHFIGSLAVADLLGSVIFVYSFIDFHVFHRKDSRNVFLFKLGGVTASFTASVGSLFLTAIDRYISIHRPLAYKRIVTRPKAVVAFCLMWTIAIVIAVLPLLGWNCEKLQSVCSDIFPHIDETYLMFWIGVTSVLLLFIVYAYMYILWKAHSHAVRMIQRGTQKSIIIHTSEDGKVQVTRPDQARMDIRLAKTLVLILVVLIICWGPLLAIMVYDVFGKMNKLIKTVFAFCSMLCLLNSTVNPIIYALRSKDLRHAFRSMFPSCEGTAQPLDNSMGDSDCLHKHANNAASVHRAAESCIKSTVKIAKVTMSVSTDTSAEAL
T2 sequence (P34972 whole entry): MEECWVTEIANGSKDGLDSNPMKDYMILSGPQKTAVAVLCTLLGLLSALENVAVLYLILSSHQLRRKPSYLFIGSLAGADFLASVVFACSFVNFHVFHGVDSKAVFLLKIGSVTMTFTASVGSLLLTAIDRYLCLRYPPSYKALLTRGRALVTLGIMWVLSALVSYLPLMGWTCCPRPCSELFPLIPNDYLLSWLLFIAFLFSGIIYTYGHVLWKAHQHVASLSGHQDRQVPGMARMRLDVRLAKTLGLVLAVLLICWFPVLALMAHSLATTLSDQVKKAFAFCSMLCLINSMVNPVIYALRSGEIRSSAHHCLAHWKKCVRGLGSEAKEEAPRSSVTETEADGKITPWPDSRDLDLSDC

One may read the pEC50 as the negative decadic logarithm of the EC50, by convention in mol/L. Consider `O=C(NN1CCC(O)CC1)c1nn(-c2ccc(Cl)cc2Cl)c2c1CCC/C2=C\c1ccc(F)cc1` [Compound 1, (6E)-1-(2,4-dichloro-phenyl)-7-(4-fluoro-benzylidene)-4,5,6,7-tetrahydro-1H-indazole-3-carboxylic acid (4-hydroxy-piperidin-1-yl)-amide], for which the pEC50 on human CB1 receptor [1] is 7.40.

Take `COC1CCN(NC(=O)c2nn(-c3ccc(Cl)cc3Cl)c3c2CCC/C3=C\c2ccc(F)cc2)CC1` [Compound 2, (7E)-1-(2,4-dichloro-phenyl)-7-(4-fluoro-benzylidene)-4,5,6,7-tetrahydro-1H-indazole-3-carboxylic acid(4-methoxy-piperidin-1-yl)-amide]: the pEC50 at human CB1 receptor [1] was 8.40.

As to `O=C(NN1CCCCC1=O)c1nn(-c2ccc(Cl)cc2Cl)c2c1CCC/C2=C\c1ccc(F)cc1` [Compound 3, (7E)-1-(2,4-dichloro-phenyl)-7-(4-fluoro-benzylidene)-4,5,6,7-tetrahydro-1H-indazole-3-carboxylic acid(2-oxo-piperidin-1-yl)-amide], the CB2 binding on human CB2 receptor turned out to be 28%. At human CB1 receptor [2], this compound yielded a CB1 binding of 19%.

Consider `C[N+]1(NC(=O)c2nn(-c3ccc(Cl)cc3Cl)c3c2CCC/C3=C\c2ccc(F)cc2)CCCCC1` [Compound 4, (7E)-1-{[1-(2,4-dichloro-phenyl)-7-(4-fluoro-benzylidene)-4,5,6,7-tetrahydro-1H-indazole-3-carbonyl]-amino}-1-methyl-piperidinium], for which, at human CB1 receptor [1], the pEC50 is 8.14.

Regarding `O=C(NN1C=CCCC1)c1nn(-c2ccc(Cl)cc2Cl)c2c1CCC/C2=C\c1ccc(F)cc1` [Compound 5, (7E)-1-(2,4-dichloro-phenyl)-7-(4-fluoro-benzylidene)-4,5,6,7-tetrahydro-1H-indazole-3-carboxylic acid(3,4-dihydro-2H-pyridin-1-yl)-amide], the pEC50 at human CB1 receptor [1] was 8.85.

The values above are taken from patent US20070117857A1, “Substituted 3-amido-tetrahydro-indazolyl cannabinoid modulators” (priority 2005, published 2007).
